The series can be described thus: Human HepG2 cell viability assay in 384 well format. It counts as toxicity, cell-based. More on the design: dose 125 nL, time 70.5 hour; concentration not given beside the values. Particulars: HepG2 cells, read-out: Inhibition.
In the case of `CN(C)CCN1CCCC12CCCN(C(=O)c1cccnc1)C2` (stereo unspecified), the cytotoxicity at 70.5 h was -5.22%. To `CC(=O)c1cc(Br)cc(F)c1OCC(=O)NC1CC1` belongs 0.481%; to `CN(CC(=O)NCC(CCO)c1ccccc1)C(=O)OC(C)(C)C` (stereo unspecified), 27.5%. To `O=c1c2ccccc2cnn1Cc1cncn1C1CC1` belongs -6.14%; to `O=C(Nc1cnn(CCN2CCOCC2)c1)c1ccccn1`, -4.34%. Turning to `COCCCn1ccnc1-c1cnc(OC)nc1`, the cytotoxicity at 70.5 h was -9.97%. The same measure for `Nc1cc(C(=O)NCC2CCN(Cc3ccncc3F)C2)ccn1` (stereo unspecified): 20.9%; for `CCn1cc(CN2CCC(c3ncc(Cl)cc3S(C)(=O)=O)CC2)c(C)n1`: 0.165%; for `Cc1ccc(CC(=O)N2CCN(CC(O)c3ccccc3)CC2)cn1` (stereo unspecified): 1.06%. The same measure for `CNC(=O)C1(c2cnccn2)CCCN1C(=O)c1ccn(C)n1` (stereo unspecified): -1.48%; for `Cc1ccccc1C(=O)NCCCN1CCc2ccccc2C1`: 19.4%. The same measure for `Cc1cc(C(=O)N2CCCC2)ccc1NCC(=O)N1CCCCC1C` (stereo unspecified): 7.01%; for `CN(C)S(=O)(=O)N1CC(c2nc(-c3ccsc3)no2)C1`: -6.06%; for `O=C1N(Cc2ccc(F)c(F)c2)CCCC12CCN(C1CCSCC1)C2` (stereo unspecified): 9.34%. `CCc1noc(C(C)N2CCN(C)CC2)n1` (stereo unspecified): the cytotoxicity at 70.5 h was -7.05%. To `O=C(Nc1cnc(Oc2ccccc2)nc1)C1CC1` belongs -2.39%; to `Nc1ccncc1-n1cc(CCO)cn1`, 1.11%.

`c1cnnc(N2CCCC2CNCc2cc[nH]n2)c1` (stereo unspecified): the cytotoxicity at 70.5 h is 11%.

For the molecule `CN1C[C@@H](NC(=O)c2cc(F)cc(F)c2)C[C@H]1C(=O)NCc1ncc[nH]1`, the cytotoxicity at 70.5 h was -16.2%. Regarding `Cc1cccc(-c2ccc3nc(C4CCN(CC5CC5)CC4)nn3c2)c1`, the cytotoxicity at 70.5 h amounted to 0.0128%. To `Cc1nnsc1C(=O)N(C)Cc1nc(-c2ccccn2)no1` belongs -2.75%. For `CCCc1nnc(N2CCC(N3CCCCCC3)CC2)o1`, the cytotoxicity at 70.5 h is -15.8%. The same measure for `Cc1nc(-c2ccccc2C)n(CC(=O)NC2CCCC2)n1`: 19%; for `O=C(CN1CC(n2cccn2)C1)NCCC1=CCCCC1`: -6.23%. The same measure for `Cc1nn(C)c(N(C)C)c1CNCc1ccc(Cn2cncn2)cc1`: 22.4%; for `O=C(CC1CCCC1)NCCS(=O)(=O)N1CCN(c2ccccn2)CC1`: -13%. The same measure for `COc1ccc(CCn2ccnc2-c2cc3n(n2)CCCNC3)cc1`: -10.7%; for `COc1ccc(C)cc1CN1CCCC1c1noc(C2CC2)n1` (stereo unspecified): -1.93%; for `O=S(=O)(c1ccc(Cl)s1)N1CCCn2ncnc21`: -1.11%. For the molecule `Cc1cnn(CC2CCCCN2C(=O)c2ccc3nnc(C)n3c2)c1` (stereo unspecified), the cytotoxicity at 70.5 h is -10.9%.

Turning to `O=C(C1CCOC1)N1C[C@H]2CN(Cc3cccnc3)C(=O)[C@H]2C1` (stereo partly specified), the cytotoxicity at 70.5 h stood at 11.7%. To `Cc1nc2n(n1)CC(NCc1cc(Cl)c3c(c1)OCCO3)CC2` (stereo unspecified) belongs -4.92%; to `O=C(C1CCC1)N1CCCC1c1nnc2n1CCCCC2` (stereo unspecified), 9.95%; to `COCC(=O)N1CCCC(c2nc(N(C)C)ncc2-c2ccccc2)C1` (stereo unspecified), 4.41%. The same measure for `CCc1nnc(CN(C)C(=O)C(CC)n2c(CC)nc3ccccc32)o1` (stereo unspecified): 3.98%; for `Cc1nsc(C(=O)NCCCc2ccccc2)n1`: -5.43%. To `COCCN1CCCn2c(nc(CNS(C)(=O)=O)cc2=O)C1` belongs -6.97%.

Turning to `Cn1nc(C(=O)N2CCOCC2)cc1C(=O)Nc1ncc(Cl)cc1Cl`, the cytotoxicity at 70.5 h was found to be 14.9%. Turning to `O=C(Nc1cc[nH]n1)c1ccc(COCC(F)(F)F)cc1`, the cytotoxicity at 70.5 h was -4%. The same measure for `COc1ccc(OCC(C)NS(C)(=O)=O)cc1` (stereo unspecified): -3.53%; for `CCc1ccc(C(=O)N2CC(C(=O)NC(C)C)C3(CCOCC3)C2)cc1` (stereo unspecified): -20.6%; for `CN1CC2(CCN(Cc3cccc(C#N)c3)CC2)CC1=O`: 20.6%.

Regarding `O=C(CCN1CCC(C(=O)c2cc(F)ccc2F)CC1)NC1CCCC1`, the cytotoxicity at 70.5 h was -17.8%.

Consider `COc1ccc(F)cc1S(=O)(=O)N1CCN(CCn2ccnc2)CC1`, for which the cytotoxicity at 70.5 h is -12.2%. To `Cc1cccc(OCCNC(=O)CN2CCCC2Cn2cccn2)c1` (stereo unspecified) belongs -15.8%. To `Cc1cc2c(N)nc(=O)n(CC(=O)Nc3cccc(Cl)c3)c2s1` belongs -13.3%; to `CC(C)c1nccn1-c1nccnc1C1CCCN1Cc1cccnc1` (stereo unspecified), -1.81%; to `O=C(c1cccnc1)N1CCN(c2ccnc3ccsc23)CC1`, -10.7%.

Turning to `CCC1C(=O)NCCN1c1cc(C)ncn1` (stereo unspecified), the cytotoxicity at 70.5 h was -22.8%. Regarding `CC(C)CN1CCCn2nc(CNC(=O)Cc3cccc(O)c3)cc2C1`, the cytotoxicity at 70.5 h was -9.37%. To `CCN1CCN(C)C(=O)C12CCN(Cc1csc(C)n1)CC2` belongs -8.47%; to `COc1ccc(-c2c[nH]c([C@@H]3COCCN3)n2)cc1`, 1.65%. For the molecule `COc1ccccc1CN(C)Cc1ccnc(C2CCCO2)n1` (stereo unspecified), the cytotoxicity at 70.5 h was -2.34%. As for `O=C(NCCCNc1ccc(C(F)(F)F)cn1)c1ccc(F)cc1Br`, the cytotoxicity at 70.5 h was -6.12%. As for `O[C@H]1CN(Cc2ccc3c(c2)OCCO3)CC[C@@]12CCCO2`, the cytotoxicity at 70.5 h is -2.15%.

Consider `CCC(c1ccccc1)N1CCN(CCO)CC1` (stereo unspecified), for which the cytotoxicity at 70.5 h is -6.76%. To `CCN(CC)S(=O)(=O)c1ccc(NC(=O)C(C)(C)C)cc1` belongs -4.91%; to `N#Cc1cc2c(nc1O)CCCCC2`, -2.17%. To `CC(C)NC(=O)[C@H]1C[C@@H]2CN(C(=O)NCc3ccccc3)C[C@H]1O2` belongs -7.91%. The same measure for `COc1cccc(OCC(=O)NS(=O)(=O)c2cc(F)ccc2F)c1`: -5.46%; for `COc1ccnc(N2CCN(C(=O)CN3CCCC3=O)CC2)n1`: 0.556%. In the case of `CCN1Cc2cc(F)ccc2N(CC(O)C(F)(F)F)CCC1=O` (stereo unspecified), the cytotoxicity at 70.5 h was -8.41%. The same measure for `NC(=O)CN1CCCN(C(=O)Cc2ccc(F)cc2)CC1`: -13.3%. To `Cc1ccnn1CCC(=O)N1CCC(c2cnccn2)CC1` belongs -7.09%; to `CCS(=O)(=O)CCN1CCCC1c1noc(C2CC2)n1` (stereo unspecified), 27%. The same measure for `CCN(CC1CCCO1)C(=O)Nc1cccc(N2CCOCC2)c1` (stereo unspecified): 0.519%; for `Cn1cc(CNCCNC(=O)Cc2ccccc2)c(-c2cccnc2)n1`: -5.62%. `COc1c(CNCc2cccc(CN3CCOCC3)c2)c(C)nn1C`: the cytotoxicity at 70.5 h is -10.7%. The same measure for `CO[C@H]1CN(C(=O)OC(C)(C)C)CC1NCc1ccoc1` (stereo partly specified): -13.8%; for `COCCN1CC[C@@H]2O[C@H](COCc3csc(C)n3)CC[C@@H]21`: -15.2%. The same measure for `O=C(Nc1cccnc1)Nc1cccc(CN2CCC(O)CC2)c1`: 10.2%. For the molecule `NC(=O)COc1cccc(CN2CCCC2c2ccc[nH]2)c1` (stereo unspecified), the cytotoxicity at 70.5 h is -5.09%. The same measure for `CCN(C(=O)c1c(Cl)cnn1CC)C(C)C(N)=O` (stereo unspecified): -11.3%; for `COc1ccc(CN(C)c2nc3c(cnn3C)c(=O)[nH]2)c(OC)c1`: 18.3%. To `NC(=O)N1CCCN(C2CCc3ccc(F)cc32)CC1` (stereo unspecified) belongs -1.61%; to `CN(CC(=O)NCCCOc1ccc(F)cc1)c1ccc(C#N)cn1`, -19%. The same measure for `CC(C)n1cnnc1CCNCc1cn(CCC(N)=O)c2ccccc12`: -0.781%. Consider `CCCc1nnsc1C(=O)NCC1CCN(C(=O)c2ccncc2)CC1`, for which the cytotoxicity at 70.5 h was found to be 25.7%.

For `CN1CCN(CCc2ncnn2-c2ccc3c(c2)OCO3)CC1`, the cytotoxicity at 70.5 h came out at 22%. The same measure for `CCN(C)S(=O)(=O)N1CCC(C(O)c2ccc(F)cc2)CC1` (stereo unspecified): -2.3%; for `CCN(C(=O)c1ccc2nnc(C3CCN(C(C)=O)C3)n2c1)C(C)C` (stereo unspecified): -12.3%. In the case of `COCC1CN(Cc2ccncc2)Cc2nn(CC3CC3)cc21` (stereo unspecified), the cytotoxicity at 70.5 h is -12.8%. With `O=C(CSCC1CC1)N1CCCC(c2nccn2Cc2ccncc2)C1` (stereo unspecified), the cytotoxicity at 70.5 h was -9.73%. To `CCOCCCC(=O)Nc1cccnc1-n1ccnc1C` belongs -6.87%; to `Cc1nc(C(C)N2Cc3ncccc3C2=O)cs1` (stereo unspecified), -12.4%. In the case of `Cn1ccnc1CN1CCN(c2ncnc3ccsc23)CC1`, the cytotoxicity at 70.5 h was -0.211%. With `COCCC(=O)N1CCC(c2ncncc2-c2ccnc(N)c2)C1` (stereo unspecified), the cytotoxicity at 70.5 h is -3.28%. Consider `Cc1cc(F)ccc1-n1cc(O)c(C(=O)NCC[S+](C)[O-])n1` (stereo unspecified), for which the cytotoxicity at 70.5 h stood at 8.16%. The same measure for `Cc1noc(CCCC(=O)N2CCNC(=O)C2)n1`: -9.21%; for `COc1ncccc1C(=O)Nc1nc2c(s1)CN(S(=O)(=O)C1CC1)CC2`: 3.95%; for `Cc1cc(C)cc(CNC(c2ccccc2)c2nccn2C)c1` (stereo unspecified): 1.26%. Take `CC(C)C(=O)N1CCc2nc(C(=O)Nc3cccnc3)sc2CC1`: the cytotoxicity at 70.5 h was -2.65%. The same measure for `CCOc1ccc(C(=O)N2CCCC(c3nccn3C)C2)cc1OCC` (stereo unspecified): -5.34%.

Consider `CS(=O)(=O)c1ccc(Cl)c(NC(=O)NCCC2=CCCCC2)c1`, for which the cytotoxicity at 70.5 h was -8.84%.

As to `Cc1cc(CN[C@@H](C)C(N)=O)c(C)s1`, the cytotoxicity at 70.5 h was -7.91%.

`CN(Cc1cc(-c2cccnc2)no1)C(=O)[C@@H]1CSCN1C`: the cytotoxicity at 70.5 h was -8.97%.

As for `COc1c(CNCc2cccnc2N2CCOCC2)c(C)nn1C`, the cytotoxicity at 70.5 h amounted to 1.9%. To `Cc1nc[nH]c1C(=O)N1CC[C@@H](NC(=O)c2ccccn2)[C@H](O)C1` belongs -1.79%; to `Cc1cccc(CN2CCc3ncnc(NC4CCC4)c3CC2)n1`, 5.7%; to `CN(C)CCOCc1nnc2n1CCN(CC1CC1)CC2`, 25.8%. To `CN(C(=O)c1ccccn1)c1nc2c(s1)CCc1c-2cnn1C` belongs 8.04%.
